Target: porcine pancreatic elastase (PPE) (Sus scrofa, UniProt P00772)
Test: PPE enzyme assay
Assay type: biochemical

porcine pancreatic elastase (PPE), sequence (P00772 27-266): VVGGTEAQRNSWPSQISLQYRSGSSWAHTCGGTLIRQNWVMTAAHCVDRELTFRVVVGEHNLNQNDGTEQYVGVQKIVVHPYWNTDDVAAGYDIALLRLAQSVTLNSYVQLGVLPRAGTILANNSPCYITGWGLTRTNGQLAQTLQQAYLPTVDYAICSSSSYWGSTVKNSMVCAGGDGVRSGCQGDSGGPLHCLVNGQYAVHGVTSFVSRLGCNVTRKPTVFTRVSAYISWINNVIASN

CC(C)(C)C(=O)Oc1ccc(S(=O)(=O)Nc2ccccc2C(=O)NCC(=O)O)cc1 [sivelestat]
IC50: 3.08 µM

Reference: publication PMC4734386 (The Journal of organic chemistry, 2015)
